In one assay the target is PI3Kα H1047R (Homo sapiens, UniProt P42336, H1047R). As to the kind of experiment: PI3Kα H1047R enzyme assay (Transcreener ADP2 TR-FRET Red Assay). The assay is classed as biochemical. As to conditions: purified recombinant full-length protein; 2 hours pre-incubation with compound. The protocol:
(§1) Activity against PI3Kα and PI3Kα H1047R enzymes were determined in biochemical assays using purified recombinant full-length proteins with the Transcreener ADP^2 TR-FRET Red Assay from Bellbrook Labs. (Catalogue number 3011-10K). Test compounds were dissolved in DMSO and were tested in 11 point 1:3 serial dilutions, typical final concentration range from 50,000 nM to 0.85 nM. Enzymes were pre-incubated with compounds for 2 hours at room temperature prior to initiating the reactions. Assays were initiated with a 2×ATP/PI(4,5)P2 diC8 substrate mixture. After 60 minutes at room temperature, the reactions were quenched with detection reagent and incubated for an additional 60 minutes at room temperature. The plates were read using a multimode reader and the emission ratio of 665 nm to 615 nm was determined. This ratio was converted to percent of control (POC). [1-(high control-sample signal)/(high control-low control)]*100. Wells without compound were used to determine high control values and wells without enzyme were used to determine low control values. The POC values were fit using a four-parameter logistic model and the value where the fit curve was equal to 50 POC was reported as the IC50 using the Signals VitroVivo software package (PerkinElmer). Final assay conditions were: 40 mM HEPES pH 7.5, 20 mM NaCl, 25 mM MgCl2, 0.01% Triton X-100. The enzyme source, catalogue number, final enzyme concentration, and final ATP and PI(4,5)P2 diC8 concentration can be found in the table E10 below.

The target in another assay is PI3Kα (Homo sapiens, UniProt P42336). Kind of assay: PI3Kα enzyme assay (Transcreener ADP2 TR-FRET Red Assay). As to conditions: purified recombinant full-length protein; 2 hours pre-incubation with compound; read-out: PI3Kα WT IC50. In kind it is biochemical. The protocol:
as §1

The subject of assay [1] is T47D (PI3Kα-H1047R) cell line. Kind of assay: HTRF phospho-AKT(S473) cell assay in T47D cells. In kind it is cell-based, human. As to conditions: Homo sapiens; T47D (PI3Kα-H1047R) cells, HTRF phospho-AKT(S473), 2 hours compound incubation. Summed up:
(§2)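 pAKT(S473) in lysates read by HTRF after a 2 h, 37 °C compound exposure (12-point 1:3 series, max 0.5% DMSO). SKBR3 (wild type, top 10 μM) received 70 ng/ml PDGF-BB during the final 15 min; T47D (H1047R, top 5 μM) was unstimulated. IC50 values derived from the dose-response.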

For assay [2], the system named is SKBR3 (PI3Kα-Wild Type) cell line. As to the kind of experiment: HTRF phospho-AKT(S473) cell assay in SKBR3 cells. In kind it is cell-based, human. As to conditions: Homo sapiens, SK-BR-3; SKBR3 (PI3Kα-Wild Type) cells, HTRF phospho-AKT(S473), 2 hours compound incubation, PDGF-BB stimulated. In short, it runs like this:
as §2

The record followed here is patent publication US12281122B1, “PI3K inhibitors” (Cogent Biosciences, Inc., priority 2023, dated 2025).

Sequence of PI3Kα (P42336 whole entry): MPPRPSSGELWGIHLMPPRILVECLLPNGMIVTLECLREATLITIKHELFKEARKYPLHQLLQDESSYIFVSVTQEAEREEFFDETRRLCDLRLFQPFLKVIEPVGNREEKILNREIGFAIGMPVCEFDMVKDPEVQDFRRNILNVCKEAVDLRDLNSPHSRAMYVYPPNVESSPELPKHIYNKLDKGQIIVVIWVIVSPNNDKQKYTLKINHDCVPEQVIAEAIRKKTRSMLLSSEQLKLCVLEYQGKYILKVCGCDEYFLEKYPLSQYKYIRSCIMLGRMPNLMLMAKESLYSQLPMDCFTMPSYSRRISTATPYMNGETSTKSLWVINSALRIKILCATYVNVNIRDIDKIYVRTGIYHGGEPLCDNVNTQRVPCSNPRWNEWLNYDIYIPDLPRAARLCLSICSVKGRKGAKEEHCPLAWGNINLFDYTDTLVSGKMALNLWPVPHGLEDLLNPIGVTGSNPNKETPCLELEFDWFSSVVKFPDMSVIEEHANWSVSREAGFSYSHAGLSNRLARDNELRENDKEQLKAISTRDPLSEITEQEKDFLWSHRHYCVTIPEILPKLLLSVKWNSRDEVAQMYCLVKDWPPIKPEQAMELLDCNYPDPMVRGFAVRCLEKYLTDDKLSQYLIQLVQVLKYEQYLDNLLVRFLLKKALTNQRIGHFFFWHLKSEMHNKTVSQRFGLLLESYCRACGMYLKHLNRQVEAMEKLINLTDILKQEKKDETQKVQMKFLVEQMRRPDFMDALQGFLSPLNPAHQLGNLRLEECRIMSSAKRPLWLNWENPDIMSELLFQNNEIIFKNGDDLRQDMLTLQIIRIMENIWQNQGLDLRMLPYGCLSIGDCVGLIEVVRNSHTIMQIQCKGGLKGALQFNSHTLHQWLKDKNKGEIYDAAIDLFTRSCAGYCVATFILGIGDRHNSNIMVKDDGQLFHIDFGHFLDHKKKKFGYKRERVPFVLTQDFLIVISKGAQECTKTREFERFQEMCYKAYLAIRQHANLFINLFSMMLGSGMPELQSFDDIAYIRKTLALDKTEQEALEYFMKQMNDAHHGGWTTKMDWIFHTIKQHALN
Sequence of PI3Kα (P27986 2-724 partner): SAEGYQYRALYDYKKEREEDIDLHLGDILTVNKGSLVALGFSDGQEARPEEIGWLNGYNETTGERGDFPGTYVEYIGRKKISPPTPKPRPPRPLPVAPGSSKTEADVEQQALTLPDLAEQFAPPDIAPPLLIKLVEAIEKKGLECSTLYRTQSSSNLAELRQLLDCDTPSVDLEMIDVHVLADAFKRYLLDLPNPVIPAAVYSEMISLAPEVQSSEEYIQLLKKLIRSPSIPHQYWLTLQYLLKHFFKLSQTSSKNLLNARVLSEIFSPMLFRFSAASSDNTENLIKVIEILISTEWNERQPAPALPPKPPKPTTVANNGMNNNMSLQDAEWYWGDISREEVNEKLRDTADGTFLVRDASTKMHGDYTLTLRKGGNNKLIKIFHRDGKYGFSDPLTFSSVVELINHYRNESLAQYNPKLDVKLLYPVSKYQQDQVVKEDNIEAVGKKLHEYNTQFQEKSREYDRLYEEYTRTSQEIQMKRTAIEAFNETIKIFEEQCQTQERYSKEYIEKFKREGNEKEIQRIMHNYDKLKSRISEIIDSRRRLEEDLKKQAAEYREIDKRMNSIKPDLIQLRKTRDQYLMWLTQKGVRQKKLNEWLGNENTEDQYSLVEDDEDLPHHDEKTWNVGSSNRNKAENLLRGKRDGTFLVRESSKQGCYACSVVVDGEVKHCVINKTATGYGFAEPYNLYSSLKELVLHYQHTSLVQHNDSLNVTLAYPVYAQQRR
Sequence of PI3Kα H1047R (P42336 whole entry H1047R): as the sequence (P42336 whole entry) above, with H1047R counted along it
Sequence of PI3Kα H1047R (P27986 2-724 partner): as the sequence (P27986 2-724 partner) above

Regarding `Cc1ccc(N[C@H](C)c2cc(F)cc3c(=O)n(C)c(N4Cc5ccc(F)cc5C4)nc23)c(C(=O)NS(C)(=O)=O)n1` [Compound 61, (R)-3-((1-(6-fluoro-2-(5-fluoroisoindolin-2-yl)-3-methyl-4-oxo-3,4-dihydro-quinazolin-8-yl)ethyl)amino)-6-methyl-N-(methylsulfonyl) picolinamide], the half-inhibitory concentration (IC50) was at least 1000 nM on PI3Kα H1047R, at least 1000 nM on PI3Kα, 1000 to 5000 nM in assay [1] and at least 5000 nM in assay [2].
With `Cc1cc([C@@H](C)Nc2ccc(Cl)nc2C(=O)NS(C)(=O)=O)c2nc(-c3cnc(C)c(F)c3)n(C)c(=O)c2c1` [Compound 91, (R)-6-chloro-3-((1-(2-(5-fluoro-6-methylpyridin-3-yl)-3,6-dimethyl-4-oxo-3,4-dihydroquinazolin-8-yl)ethyl)amino)-N-(methylsulfonyl) picolinamide], the IC50 at PI3Kα H1047R was 250 to 500 nM; on PI3Kα it was at least 1000 nM; in assay [1], under 250 nM; in assay [2], 1000 to 5000 nM.
With `Cc1cc([C@@H](C)Nc2ccc(Cl)nc2C(=O)NS(C)(=O)=O)c2nc(N3Cc4cn(CC(F)(F)F)nc4C3)n(C)c(=O)c2c1` [Compound 54, (R)-6-chloro-3-((1-(3,6-dimethyl-4-oxo-2-(2-(2,2,2-trifluoroethyl)-2,6-dihydropyrrolo[3,4-c]pyrazol-5(4H)-yl)-3,4-dihydroquinazolin-8-yl)ethyl)amino)-N-(methylsulfonyl) picolinamide], the IC50 at PI3Kα H1047R was 100 to 250 nM; at PI3Kα it was at least 1000 nM; in assay [1], under 250 nM; in assay [2], 1000 to 5000 nM.
Take `Cc1cc([C@@H](C)Nc2ccc(Cl)nc2C(=O)NS(C)(=O)=O)c2nc(N3CCC(F)(F)C[C@@H]3C)n(C)c(=O)c2c1` (single isomer, unassigned) [Compound 42, 6-chloro-3-(((R)-1-(2-((R*)-4,4-difluoro-2-methylpiperidin-1-yl)-3,6-dimethyl-4-oxo-3,4-dihydroquinazolin-8-yl)ethyl)amino)-N-(methylsulfonyl) picolinamide]: the IC50 at PI3Kα H1047R was 500 to 1000 nM; on PI3Kα it was at least 1000 nM; in assay [1], 250 to 500 nM; in assay [2], 1000 to 5000 nM.
Turning to `Cc1cc([C@@H](C)Nc2ccc(Cl)nc2C(=O)NS(C)(=O)=O)c2nc(N3C[C@H]4C[C@@H]3CO4)n(C)c(=O)c2c1` [Compound 26, 3-(((R)-1-(2-((1R,4R)-2-oxa-5-azabicyclo[2.2.1]heptan-5-yl)-3,6-dimethyl-4-oxo-3,4-dihydroquinazolin-8-yl)ethyl)amino)-6-chloro-N-(methylsulfonyl) picolinamide], the IC50 at PI3Kα H1047R is 500 to 1000 nM; at PI3Kα it was at least 1000 nM; in assay [1] it was under 250 nM; in assay [2], 1000 to 5000 nM.
Turning to `Cc1cc([C@@H](C)Nc2ccc(Cl)nc2C(=O)NS(C)(=O)=O)c2nc(C3CCCCC3)n(C)c(=O)c2c1` [Compound 92, (R)-6-chloro-3-((1-(2-cyclohexyl-3,6-dimethyl-4-oxo-3,4-dihydroquinazolin-8-yl)ethyl)amino)-N-(methylsulfonyl) picolinamide], the IC50 on PI3Kα H1047R is under 100 nM; at PI3Kα, at least 1000 nM; in assay [1], under 250 nM; in assay [2], 1000 to 5000 nM.
The corresponding values for `Cc1cc([C@@H](C)Nc2ccc(Cl)nc2C(=O)NS(C)(=O)=O)c2nc(-c3cccnc3C)n(C)c(=O)c2c1` [Compound 85, (R)-6-chloro-3-((1-(3,6-dimethyl-2-(2-methylpyridin-3-yl)-4-oxo-3,4-dihydroquinazolin-8-yl)ethyl)amino)-N-(methylsulfonyl) picolinamide] are at least 1000 nM, at least 1000 nM, 1000 to 5000 nM and at least 5000 nM.
Turning to `Cc1cc([C@@H](C)Nc2ccc(Cl)cc2C(=O)NS(C)(=O)=O)c2nc(N3Cc4ccc(F)cc4C3)n(C)c(=O)c2c1` [Compound 64, (R)-5-chloro-2-((1-(2-(5-fluoro-isoindolin-2-yl)-3,6-dimethyl-4-oxo-3,4-dihydroquinazolin-8-yl)ethyl)amino)-N-(methylsulfonyl) benzamide], the IC50 at PI3Kα H1047R was at least 1000 nM; on PI3Kα, at least 1000 nM; in assay [1], 1000 to 5000 nM; in assay [2] it was 1000 to 5000 nM.
On to `COc1nc(Cl)ccc1N[C@H](C)c1cc(C)cc2c(=O)n(C)c(N3Cc4ccc(F)cc4C3)nc12` [Compound 96, (R)-8-(1-((6-chloro-2-methoxypyridin-3-yl)amino)ethyl)-2-(5-fluoroisoindolin-2-yl)-3,6-dimethylquinazolin-4(3H)-one], for which the IC50 at PI3Kα H1047R was at least 1000 nM; on PI3Kα it was at least 1000 nM; in assay [1], 1000 to 5000 nM; in assay [2] it was at least 5000 nM.
Regarding `C[C@@H](Nc1ccc(Cl)nc1C(=O)NS(C)(=O)=O)c1cc(F)cc2c(=O)n(C)c(-c3cncc(F)c3)nc12` [Compound 90, (R)-6-chloro-3-((1-(6-fluoro-2-(5-fluoropyridin-3-yl)-3-methyl-4-oxo-3,4-dihydroquinazolin-8-yl)ethyl)amino)-N-(methylsulfonyl) picolinamide], the IC50 was at least 1000 nM on PI3Kα H1047R, at least 1000 nM on PI3Kα, 1000 to 5000 nM in assay [1] and 1000 to 5000 nM in assay [2].
Take `Cc1cc([C@@H](C)Nc2ccc(Cl)nc2C(=O)NS(C)(=O)=O)c2nc(-c3cncc(F)c3)n(C)c(=O)c2c1` [Compound 83, (R)-6-chloro-3-((1-(2-(5-fluoropyridin-3-yl)-3,6-dimethyl-4-oxo-3,4-dihydroquinazolin-8-yl)ethyl)amino)-N-(methylsulfonyl) picolinamide]: the IC50 was at least 1000 nM at PI3Kα H1047R, at least 1000 nM at PI3Kα, 250 to 500 nM in assay [1] and 1000 to 5000 nM in assay [2].
Consider `C[C@@H](Nc1ccc(Cl)nc1C(=O)NS(C)(=O)=O)c1cc(F)cc2c(=O)n(C)c(N3Cc4ccc(F)cc4C3)nc12` [Compound 66, (R)-6-chloro-3-((1-(6-fluoro-2-(5-fluoroisoindolin-2-yl)-3-methyl-4-oxo-3,4-dihydroquinazolin-8-yl)ethyl)amino)-N-(methylsulfonyl) picolinamide], for which the IC50 at PI3Kα H1047R was 100 to 250 nM; at PI3Kα, under 100 nM; in assay [1] it was 250 to 500 nM; in assay [2], 1000 to 5000 nM.
For the molecule `Cc1cc([C@@H](C)Nc2cc(F)cnc2C(=O)NS(C)(=O)=O)c2nc(N3Cc4ccc(F)cc4C3)n(C)c(=O)c2c1` [Compound 68, (R)-5-fluoro-3-((1-(2-(5-fluoro-isoindolin-2-yl)-3,6-dimethyl-4-oxo-3,4-dihydroquinazolin-8-yl)ethyl)amino)-N-(methylsulfonyl) picolinamide], the IC50 at PI3Kα H1047R is at least 1000 nM; on PI3Kα, at least 1000 nM; in assay [1], 1000 to 5000 nM; in assay [2] it was at least 5000 nM.
Consider `Cc1cc([C@@H](C)Nc2ccc(Cl)nc2C(=O)NS(C)(=O)=O)c2nc(N3Cc4cnn(CC(F)(F)F)c4C3)n(C)c(=O)c2c1` [Compound 53, (R)-6-chloro-3-((1-(3,6-dimethyl-4-oxo-2-(1-(2,2,2-trifluoroethyl)-4,6-dihydropyrrolo[3,4-c]pyrazol-5(1H)-yl)-3,4-dihydroquinazolin-8-yl)ethyl)amino)-N-(methylsulfonyl) picolinamide], for which the IC50 at PI3Kα H1047R is 100 to 250 nM; at PI3Kα, at least 1000 nM; in assay [1], under 250 nM; in assay [2], 1000 to 5000 nM.
Turning to `Cc1cc([C@@H](C)Nc2ccc(Cl)nc2C(=O)NS(C)(=O)=O)c2nc(N3CCO[C@@H](C)C3)n(C)c(=O)c2c1` [Compound 36, 6-chloro-3-(((R)-1-(3,6-dimethyl-2-((S)-2-methylmorpholino)-4-oxo-3,4-dihydroquinazolin-8-yl)ethyl)amino)-N-(methylsulfonyl) picolinamide], the IC50 was at least 1000 nM on PI3Kα H1047R, at least 1000 nM on PI3Kα, 250 to 500 nM in assay [1] and 1000 to 5000 nM in assay [2].
As for `Cc1cc([C@@H](C)Nc2ccccc2S(N)(=O)=O)c2nc(N3Cc4ccc(F)cc4C3)n(C)c(=O)c2c1` (single isomer, unassigned) [Compound 104, 2-((1-(2-(5-fluoroisoindolin-2-yl)-3,6-dimethyl-4-oxo-3,4-dihydroquinazolin-8-yl)ethyl)amino) benzenesulfonamide], the IC50 is at least 1000 nM on PI3Kα H1047R, at least 1000 nM at PI3Kα, 250 to 500 nM in assay [1] and at least 5000 nM in assay [2].
